In brackets after ≈: the same amount, converted by molar mass. Where two headings read alike, the source gives them in different places.
Tests used:
[1] = cited from earlier work
[2] = PTX solubility in PLHNs / water; assay type: physicochemical

CC(=O)O[C@H]1C(=O)[C@@]2(C)[C@H]([C@H](OC(=O)c3ccccc3)[C@]3(O)C[C@H](OC(=O)[C@H](O)[C@@H](NC(=O)c4ccccc4)c4ccccc4)C(C)=C1C3(C)C)[C@]1(OC(C)=O)CO[C@@H]1C[C@@H]2O [PTX, Paclitaxel]
Plasma concentration threshold above which PTX is pharmacologically active [1]: 0.1 µM
Plasma concentration threshold above which PTX is pharmacologically active ([1]; equivalent of 0.1 µM): 85.3 ng/ml
solubility [2]: ~6 µg/mL (≈ 7.03 µM)

Source: publication PMC8261254 (Asian Journal of Pharmaceutical Sciences, 2021)
